The record followed here is patent US9260439B2, “Dihydropyrrolopyrimidine derivatives” (PFIZER INC., priority 2014, dated 2016).

pKi: −log10 of the molar value.

Chain of truncated PI3Kα (p110α/iSH2 p85α) (P42336 whole entry, the tested form may be a part): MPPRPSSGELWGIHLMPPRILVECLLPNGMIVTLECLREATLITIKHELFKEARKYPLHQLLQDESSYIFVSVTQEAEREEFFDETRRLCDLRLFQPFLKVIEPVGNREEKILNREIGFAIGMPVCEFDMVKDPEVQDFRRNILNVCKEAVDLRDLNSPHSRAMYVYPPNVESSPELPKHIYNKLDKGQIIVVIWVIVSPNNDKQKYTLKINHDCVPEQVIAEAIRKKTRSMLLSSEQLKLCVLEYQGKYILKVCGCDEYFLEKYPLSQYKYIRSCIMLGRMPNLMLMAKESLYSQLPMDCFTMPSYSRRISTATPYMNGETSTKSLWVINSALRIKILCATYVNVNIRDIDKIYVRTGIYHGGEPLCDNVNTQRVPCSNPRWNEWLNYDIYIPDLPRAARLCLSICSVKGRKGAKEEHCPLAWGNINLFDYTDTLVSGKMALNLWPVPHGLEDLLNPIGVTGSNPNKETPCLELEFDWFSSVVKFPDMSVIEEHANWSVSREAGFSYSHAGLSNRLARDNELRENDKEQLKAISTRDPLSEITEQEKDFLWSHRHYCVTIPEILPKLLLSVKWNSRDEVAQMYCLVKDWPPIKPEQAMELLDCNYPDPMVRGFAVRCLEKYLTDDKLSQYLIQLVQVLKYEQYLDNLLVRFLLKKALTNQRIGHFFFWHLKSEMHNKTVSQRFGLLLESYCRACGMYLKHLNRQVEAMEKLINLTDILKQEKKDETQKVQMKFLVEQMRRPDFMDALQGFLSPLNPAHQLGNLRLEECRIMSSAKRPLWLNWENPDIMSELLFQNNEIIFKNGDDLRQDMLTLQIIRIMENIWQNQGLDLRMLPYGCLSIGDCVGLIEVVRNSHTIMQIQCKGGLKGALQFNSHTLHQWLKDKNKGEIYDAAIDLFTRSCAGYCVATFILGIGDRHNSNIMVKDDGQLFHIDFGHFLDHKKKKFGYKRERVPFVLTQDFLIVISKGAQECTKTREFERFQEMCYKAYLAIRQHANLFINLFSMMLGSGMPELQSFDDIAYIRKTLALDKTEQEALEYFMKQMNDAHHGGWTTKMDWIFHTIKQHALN

One test concerns the target truncated PI3Kα (p110α/iSH2 p85α) (Homo sapiens (Human), UniProt P42336). Kind of test: PI3KA_Act fluorescence polarization kinase assay (Ki). Format: biochemical. The settings on record: 1 mM ATP. In a few lines: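 Ki values result from fitting fluorescence polarization signals to the Morrison equation for tight-binding competitive inhibitors. The detector was GST-Grp1 PH domain with TAMRA-PIP3, read after a 30 min room-temperature reaction of 0.5 nM truncated PI3Kα and 30 μM PIP2 at pH 7.4 in HEPES/NaCl/MgCl2/DTT/CHAPS buffer. Compounds were tested as 12-point 3-fold dilutions from 3 μM.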
As to `COC1CN(C(=O)N2CC[C@](C)(N3CCc4c(-c5cnc(N)nc5)nc(N5CCOCC5)nc43)C2)C1` [Example 367, {(3S)-3-[4-(2-aminopyrimidin-5-yl)-2-(morpholin-4-yl)-5,6-dihydro-7H-pyrrolo[2,3-d]pyrimidin-7-yl]-3-methylpyrrolidin-1-yl}(3-methoxyazetidin-1-yl)methanone], the “PI3KA_Act Ki” value was <0.018 nM.

As for `CC(N)(CF)C(=O)N1CC[C@](C)(N2CCc3c(-c4cnc(N)nc4)nc(N4CCOCC4)nc32)C1.Cl` (stereo partly drawn) [Example 294, 2-amino-1-{(3S)-3-[4-(2-aminopyrimidin-5-yl)-2-(morpholin-4-yl)-5,6-dihydro-7H-pyrrolo[2,3-d]pyrimidin-7-yl]-3-methylpyrrolidin-1-yl}-3-fluoro-2-methylpropan-1-one hydrochloride], the “PI3KA_Act Ki” value was <0.018 nM.

On to `C[C@H]1COCCN1c1nc(-c2cnc(N)nc2)c2c(n1)N(C1(C)CNC1)CC2.Cl` [Example 450, 5-{7-(3-methylazetidin-3-yl)-2-[(3S)-3-methylmorpholin-4-yl]-6,7-dihydro-5H-pyrrolo[2,3-d]pyrimidin-4-yl}pyrimidin-2-amine hydrochloride], for which the “PI3KA_Act Ki” value is 0.167 nM.

As for `C[C@H]1COCCN1c1nc(-c2cnc(N)nc2)c2c(n1)N([C@@]1(C)CCN(C(=O)[C@H](N)C3CC3)C1)CC2.Cl` [Example 482, (2R)-2-amino-1-[(3S)-3-{4-(2-aminopyrimidin-5-yl)-2-[(3S)-3-methylmorpholin-4-yl]-5,6-dihydro-7H-pyrrolo[2,3-d]pyrimidin-7-yl}-3-methylpyrrolidin-1-yl]-2-cyclopropylethanone hydrochloride], the “PI3KA_Act Ki” value is reported as 0.022 nM.

Consider `C[C@@H]1COCCN1c1nc(-c2cnc(N)nc2)c2c(n1)N([C@]1(C)CCNC1)CC2` [Example 226], for which the “PI3KA_Act Ki” value came to 7.437 nM.

For the compound `C[C@H]1COCCN1c1nc(-c2cnc(N)nc2)c2c(n1)N([C@@]1(C)CCN(C(=O)C3(N)CC3)C1)CC2.Cl` [Example 492, (1-aminocyclopropyl)[(3S)-3-{4-(2-aminopyrimidin-5-yl)-2-[(3S)-3-methylmorpholin-4-yl]-5,6-dihydro-7H-pyrrolo[2,3-d]pyrimidin-7-yl}-3-methylpyrrolidin-1-yl]methanone hydrochloride], the “PI3KA_Act Ki” value is on record as 0.101 nM.

As for `C[C@H]1COCCN1c1nc(-c2cnc(N)nc2)c2c(n1)N([C@@]1(C)CCNC1)CC2.Cl` [Example 465, 5-{2-[(3S)-3-methylmorpholin-4-yl]-7-[(3S)-3-methylpyrrolidin-3-yl]-6,7-dihydro-5H-pyrrolo[2,3-d]pyrimidin-4-yl}pyrimidin-2-amine hydrochloride], the “PI3KA_Act Ki” value was determined as 0.160 nM.

For the compound `CC(C)(C)OC(=O)N1CC(N2CCc3c(-c4cnc(N)nc4)nc(N4CCOCC4)nc32)C1` [Example 248, tert-butyl 3-[4-(2-aminopyrimidin-5-yl)-2-(morpholin-4-yl)-5,6-dihydro-7H-pyrrolo[2,3-d]pyrimidin-7-yl]azetidine-1-carboxylate], the “PI3KA_Act Ki” value was found to be 0.212 nM.

With `CC(C)(O)C(=O)N1CC(N2CCc3c(-c4cnc(N)nc4)nc(N4CCOCC4)nc32)C1` [Example 241, 1-{3-[4-(2-aminopyrimidin-5-yl)-2-(morpholin-4-yl)-5,6-dihydro-7H-pyrrolo[2,3-d]pyrimidin-7-yl]azetidin-1-yl}-2-hydroxy-2-methylpropan-1-one], the “PI3KA_Act Ki” value is 1.174 nM.

Usually pKi stands for the Ki on a negative log10 scale, so that one unit is a factor of ten. A lower pKi goes with a large Ki. `[2H]C1([2H])CN(c2nc(-c3cnc(N)nc3)c3c(n2)N([C@@]2(C)CCN(C(=O)OC(C)(C)C)C2)CC3)CC([2H])([2H])O1` [Example 239]: the pKi is > 10.74.

The target of a further test is full-length PI3Kα (full-length p110α/p85α) (Homo sapiens (Human), UniProt P42336). Description: PI3KA_FL fluorescence polarization kinase assay (Ki). The note with it: 41 μM ATP. The class given is biochemical. An excerpt: Enzyme Production for Biochemical Assays: 1) PI3Kα Complex (Full Length p110α and p85α)(“PI3KA_FL”)
Chain of full-length PI3Kα (full-length p110α/p85α) (P42336 whole entry): as the sequence (P42336 whole entry, the tested form may be a part) above
Chain of full-length PI3Kα (full-length p110α/p85α) (P27986 whole entry partner): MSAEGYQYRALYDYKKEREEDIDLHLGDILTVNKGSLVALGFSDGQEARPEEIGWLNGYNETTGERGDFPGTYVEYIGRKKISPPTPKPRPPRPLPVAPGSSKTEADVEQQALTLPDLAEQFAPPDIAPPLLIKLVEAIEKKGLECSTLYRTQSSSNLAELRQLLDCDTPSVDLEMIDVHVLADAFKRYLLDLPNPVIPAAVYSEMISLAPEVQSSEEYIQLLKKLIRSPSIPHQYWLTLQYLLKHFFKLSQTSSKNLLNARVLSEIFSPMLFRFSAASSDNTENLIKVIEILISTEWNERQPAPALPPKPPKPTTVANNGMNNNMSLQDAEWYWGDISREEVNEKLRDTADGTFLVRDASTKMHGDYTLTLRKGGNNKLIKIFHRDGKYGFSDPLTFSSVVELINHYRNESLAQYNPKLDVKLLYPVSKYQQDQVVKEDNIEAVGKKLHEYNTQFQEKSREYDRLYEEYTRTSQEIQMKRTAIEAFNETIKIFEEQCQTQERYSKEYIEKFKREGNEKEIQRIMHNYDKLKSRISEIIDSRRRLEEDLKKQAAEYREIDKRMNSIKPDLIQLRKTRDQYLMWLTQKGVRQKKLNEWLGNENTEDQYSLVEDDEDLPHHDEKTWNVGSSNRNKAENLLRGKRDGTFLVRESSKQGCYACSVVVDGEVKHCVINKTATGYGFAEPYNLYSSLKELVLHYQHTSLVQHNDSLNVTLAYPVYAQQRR
Genes encoding for full length p110α and p85α subunits of PI3Kα complex were subcloned from existing constructs into pFASTBAC Dual vector (Life Technologies, Carlsbad, Calif.) using standard cloning procedures. Gene encoding p110α subunit was subcloned into polyhedrine promoter while gene encoding p85α subunit was subcloned into p10 promoter. Additionally, sequence encoding for histidine tag and Tobacco Etch Virus (“TEV”) cleavage site preceded p110α ORF (Open Reading Frame). Recombinant baculovirus was generated using Bac-to-Bac protocol (Life Technologies, Carlsbad, Calif.) and large scale expression was conducted in Sf21 (Life Technologies, Carlsbad, Calif.) cells at a multiplicity of infection (“MOI”)=1 for 72 hours. Cells were lyzed in 50 mM Tris pH 8.0, 250 mM NaCl, 5% glycerol, 0.25 mM TCEP, and 20 mM imidazole. The PI3Kα complex was purified from clarified supernatant using Immobilized Metalo Affinity Chromatography (“IMAC”). The protein was eluted from the column using 50 mM Tris pH 8.0, 200 mM NaCl, 5% glycerol, 0.25 mM TCEP, and 200 mM imidazole, and further desalted into 50 mM Tris pH 8.0, 20 mM NaCl, and 0.25 mM TCEP prior to loading on MonoQ sepharose (GE Healthcare, Piscataway, N.J.). PI3Kα complex was eluted from MonoQ sepharose over 20 column volumes using 0-30% gradient of buffer B (50 mM Tris pH 8.0, 1 M NaCl, and 0.25 mM TCEP). The peak fractions were pulled together and loaded on Superdex 200 26/60 SEC column equilibrated in 50 mM Tris pH 8.0, 200 mM NaCl, and 0.5 mM TCEP. […] Purity and integrity of the complex was confirmed using LCMS, analytical SEC and SDS-PAGE (sodium dodecyl sulfate polyacrylamide gel electrophoresis) analysis.
The biochemical assays of kinase activity of full-length PI3Kα (full-length p110α/p85a) or truncated PI3Kα (p110α/iSH2 p85a) were conducted using a fluorescence polarization format similar to the procedure of Yuan J., et al., (2011) “PF-04691502, a Potent and Selective Oral Inhibitor of PI3K and mTOR Kinases with Antitumor Activity”, Mol Cancer Ther. 10, 2189-2199. The enzymatic reactions were conducted in 50 μL volumes in 96-well plates. The reactions contained human recombinant PI3Kα (2 nM full-length p110α/p85α or 0.5 nM p110α/iSH2 p85) and 30 μM phosphatidylinositol 4,5-bisphosphate (“PIP2”) (Cayman Chemical Company, Ann Arbor, Mich.) and were sonicated for 1 minute prior to adding PI3Kα enzyme (PI3KA_Act or PI3KA_FL), DMSO or test compound (12-point 3-fold serial dilution, 3 μM top dose, 2° A) DMSO final concentration), 5 mM MgCl2, 50 mM HEPES pH 7.4, 150 mM NaCl, 1 mM DTT ((2S,3S)-1,4-bis(sulfanyl)butane-2,3-diol), and 0.05% 3-[(3-cholamidopropyl)dimethylammonio]-1-propanesulfonate (“CHAPS”). […] The reactions were incubated for 30 min at room temperature, stopped with EDTA pH 8 (10 mM final concentration). In a detection plate, 15 μL of detector/probe mixture, containing 480 nM GST-Grp1 PH domain protein (University of Dundee, Dundee, UK) and 12 nM carboxytetramethylrhodamine (“TAMRA”)-tagged fluorescent phosphatidylinositol (3,4,5)-triphosphate (“PIP3”) (Echelon Biosciences, Inc., Salt Lake City, Utah) in assay buffer, was mixed with 15 μL of kinase reaction mixture. The plate was shaken for 30 minutes and fluorescence polarization values were measured on an LJL Analyst HT plate reader (Molecular Devices, Sunnyvale, Calif.). […] The inhibition constants (Ki) were calculated by fitting fluorescence polarization values, corresponding to initial reaction rates, to the Morrison equation (Morrison, J. F. (1969) Kinetics of the reversible inhibition of enzyme catalysed reactions by tight-binding inhibitors. Biochim. Biophys. Acta 185, 269-286) for tight-binding competitive inhibitors using non-linear regression method (GraphPad Prism, GraphPad Software, San Diego, Calif.).
(In general: Polarisation of emitted light reports the rotation of a fluorescent probe.)
As for `Nc1ncc(-c2nc(N3CCOCC3)nc3c2CCN3C2CCCOC2)cn1` (racemic) [Example 37], the “PI3KA_FL Ki” value is 7.189 nM.

As to `C[C@H]1COCCN1c1nc(-c2cnc(N)nc2)c2c(n1)N([C@H]1C[C@H](N(C)S(C)(=O)=O)C1)CC2` [Example 90], the “PI3KA_FL Ki” value was 0.403 nM.

For `CC(C)OC(=O)N1CC[C@H](N2CCc3c(-c4cnc(N)nc4)nc(N4CCOC[C@@H]4C)nc32)C1` [Example 124], the “PI3KA_FL Ki” value was found to be 0.333 nM.

As to `Nc1ncc(-c2nc(N3CCOCC3)nc3c2CCN3[C@@H]2CCN(S(N)(=O)=O)C2)cn1` [Example 84], the “PI3KA_FL Ki” value worked out at 3.507 nM.

Consider `CC(C)S(=O)(=O)N1CC(N2CCc3c(-c4cnc(N)nc4)nc(N4CCOCC4)nc32)C1` [Example 116], for which the “PI3KA_FL Ki” value stood at 0.961 nM.

With `Nc1ncc(-c2nc(N3CCOCC3)nc3c2CCN3C2CCOCC2)cn1` [Example 18], the “PI3KA_FL Ki” value amounted to 2.706 nM.

In the case of `Nc1ncc(-c2nc(N3CCOCC3)nc3c2CCN3[C@H]2CCCOC2)cn1` [Example 47], the “PI3KA_FL Ki” value was found to be 3.320 nM.

`CC(=O)N1CCCC(N2CCc3c(-c4cnc(N)nc4)nc(N4CCOCC4)nc32)C1` (racemic) [Example 51]: the “PI3KA_FL Ki” value stood at 18.619 nM.

As to `Nc1ncc(-c2nc(N3CCOCC3)nc3c2CCN3C2CCC(F)(F)C2)cn1` (racemic) [Example 19], the “PI3KA_FL Ki” value stood at 0.528 nM.

With `Nc1ncc(-c2nc(N3CCOCC3)nc3c2CCN3[C@H]2CCOC2)cn1` [Example 16], the “PI3KA_FL Ki” value was 1.423 nM.

In the case of `CS(=O)(=O)[C@H]1C[C@H](N2CCc3c(-c4cnc(N)nc4)nc(N4CCOCC4)nc32)C1` [Example 15], the “PI3KA_FL Ki” value is 0.856 nM.

For `Nc1ncc(-c2nc(N3CCOCC3)nc3c2CCN3[C@H]2CCN(S(N)(=O)=O)C2)cn1` [Example 26], the “PI3KA_FL Ki” value is 0.423 nM.

`CNS(=O)(=O)N1CCC[C@@H](N2CCc3c(-c4cnc(N)nc4)nc(N4CCOCC4)nc32)C1` [Example 97]: the “PI3KA_FL Ki” value is listed as 3.632 nM.

Consider `CNS(=O)(=O)N1CCC[C@H](N2CCc3c(-c4cnc(N)nc4)nc(N4CCOCC4)nc32)C1` [Example 91], for which the “PI3KA_FL Ki” value was found to be 1.472 nM.

With `CC(=O)N1C[C@@H](F)[C@H](N2CCc3c(-c4cnc(N)nc4)nc(N4CCOCC4)nc32)C1` (single isomer, unassigned) [Example 66], the “PI3KA_FL Ki” value is 0.926 nM.

In the case of `NC(=O)N1CC[C@H](N2CCc3c(-c4cnc(N)nc4)nc(N4CCOCC4)nc32)C1` [Example 58], the “PI3KA_FL Ki” value came to 0.794 nM.

Take `CC(C)(C)NC(=O)N1CC[C@H](N2CCc3c(-c4cnc(N)nc4)nc(N4CCOCC4)nc32)C1` [Example 139]: the “PI3KA_FL Ki” value is reported as 0.596 nM.

Turning to `CN(C)S(=O)(=O)[C@H]1CC[C@@H](N2CCc3c(-c4cnc(N)nc4)nc(N4CCOCC4)nc32)C1` [Example 129], the “PI3KA_FL Ki” value is 0.380 nM.

On to `CC(=O)N1CCC[C@H](N2CCc3c(-c4cnc(N)nc4)nc(N4CCOCC4)nc32)C1` [Example 54], for which the “PI3KA_FL Ki” value worked out at 8.634 nM.

As to `Nc1ncc(-c2nc(N3CCOCC3)nc3c2CCN3[C@@H]2CC[C@H](S(N)(=O)=O)C2)cn1` [Example 137], the “PI3KA_FL Ki” value is on record as 0.664 nM.

As for `CN([C@H]1C[C@@H](N2CCc3c(-c4cnc(N)nc4)nc(N4CCOCC4)nc32)C1)S(C)(=O)=O` [Example 49], the “PI3KA_FL Ki” value is listed as 0.722 nM.
